This passage reports mutagenic call results from PubChem BioAssay AID1259407 (Chemical Carcinogenesis Research Information System (CCRIS), 2018).

Each structure is given as a SMILES string. Activity calls are given as the source filed them. The rule behind the calls is not given here.

For this data set, the system named is CCRIS mutagenicity, Ames/micronucleus/aberration tests. Put plainly: CCRIS mutagenicity studies.
The mark [1] stands for this setting: Test System: AMES SALMONELLA TYPHIMURIUM, Strain/Indicator: TA98, Metabolic Activation: NONE, Method: STANDARD PLATE.
Setting [2] is: Test System: AMES SALMONELLA TYPHIMURIUM, Strain/Indicator: TA98, Metabolic Activation: RAT, LIVER, S-9, AROCLOR 1254, Method: STANDARD PLATE.

With `c1ccc(-c2ccccn2)nc1`, the mutagenic call is “active; positive” (Test System: AMES SALMONELLA TYPHIMURIUM, Strain/Indicator: TA97, Metabolic Activation: RAT, LIVER, S-9, PHENOBARBITAL, Method: STANDARD PLATE); “active; positive” (Test System: AMES SALMONELLA TYPHIMURIUM, Strain/Indicator: TA98, Metabolic Activation: RAT, LIVER, S-9, PHENOBARBITAL, Method: STANDARD PLATE); “active; positive” (Test System: AMES SALMONELLA TYPHIMURIUM, Strain/Indicator: TA100, Metabolic Activation: RAT, LIVER, S-9, PHENOBARBITAL, Method: STANDARD PLATE); “inactive; negative” (Test System: AMES SALMONELLA TYPHIMURIUM, Strain/Indicator: TA1535, Metabolic Activation: RAT, LIVER, S-9, PHENOBARBITAL, Method: STANDARD PLATE); “inactive; negative” (Test System: AMES SALMONELLA TYPHIMURIUM, Strain/Indicator: TA1537, Metabolic Activation: RAT, LIVER, S-9, PHENOBARBITAL, Method: STANDARD PLATE); “inactive; negative” (Test System: AMES SALMONELLA TYPHIMURIUM, Strain/Indicator: TA1538, Metabolic Activation: RAT, LIVER, S-9, PHENOBARBITAL, Method: STANDARD PLATE).

In the case of `O=[N+]([O-])c1cc2c(cc1O)[nH]c1ccccc12`, the mutagenic call (Test System: AMES SALMONELLA TYPHIMURIUM, Strain/Indicator: TA98(NR), Metabolic Activation: NONE, Method: STANDARD PLATE) is “active; positive”; the mutagenic call (Test System: AMES SALMONELLA TYPHIMURIUM, Strain/Indicator: TA98(NR), Metabolic Activation: RAT, LIVER, S-9, AROCLOR 1254, Method: STANDARD PLATE) was “active; positive”; the mutagenic call under setting [1] was “active; positive”; the mutagenic call under setting [2] is “active; positive”.

`O=C1c2ccccc2C(=O)N1CCCN1c2ccccc2Sc2ccc(Cl)cc21`: where the note is “Test System: AMES SALMONELLA TYPHIMURIUM, Strain/Indicator: TA98, Metabolic Activation: NONE, Method: SPOT TEST”, the mutagenic call is “inactive; negative”.

For the compound `CNc1ccc2ccc3ccc(O)cc3c2c1`, the mutagenic call is “active; positive” under setting [2] and “active; positive” (Test System: AMES SALMONELLA TYPHIMURIUM, Strain/Indicator: TA98, Metabolic Activation: RAT, LIVER, S-9, AROCLOR, Method: STANDARD PLATE).

In the case of `O[C@H]1C=Cc2c(cc3ccc4cccc5ccc2c3c45)[C@@H]1O`, the mutagenic call is, setting by setting: (Test System: AMES SALMONELLA TYPHIMURIUM, Strain/Indicator: TA97, Metabolic Activation: RAT, LIVER, S-9, AROCLOR 1254, Method: STANDARD PLATE) “active; positive”; (Test System: AMES SALMONELLA TYPHIMURIUM, Strain/Indicator: TA98, Metabolic Activation: NONE, Method: HOST-MEDIATED) “active; positive”; (Test System: AMES SALMONELLA TYPHIMURIUM, Strain/Indicator: TA98, Metabolic Activation: RAT, LIVER, 3-METHYLCHOLANTHRENE, Method: LIQUID SUSPENSION) “active; positive”; under setting [2], “active; positive”; (Test System: AMES SALMONELLA TYPHIMURIUM, Strain/Indicator: TA98, Metabolic Activation: RAT, LIVER, S-9, Method: STANDARD PLATE) “active; positive”; (Test System: AMES SALMONELLA TYPHIMURIUM, Strain/Indicator: TA100, Metabolic Activation: EPITHELIAL CELL-MEDIATED, AROCLOR 1254, Method: PREINCUBATION) “active; positive”. For the same compound, the mutagenic call reads like this: (Test System: AMES SALMONELLA TYPHIMURIUM, Strain/Indicator: TA100, Metabolic Activation: EPITHELIAL CELL-MEDIATED, NADPH, Method: PREINCUBATION) “active; positive”; (Test System: AMES SALMONELLA TYPHIMURIUM, Strain/Indicator: TA100, Metabolic Activation: EPITHELIAL CELL-MEDIATED, Method: PREINCUBATION) “active; positive”; (Test System: AMES SALMONELLA TYPHIMURIUM, Strain/Indicator: TA100, Metabolic Activation: KUPFFER CELL-MEDIATED, AROCLOR 1254, Method: PREINCUBATION) “active; positive”; (Test System: AMES SALMONELLA TYPHIMURIUM, Strain/Indicator: TA100, Metabolic Activation: KUPFFER CELL-MEDIATED, NADPH, Method: PREINCUBATION) “active; positive”; (Test System: AMES SALMONELLA TYPHIMURIUM, Strain/Indicator: TA100, Metabolic Activation: KUPFFER CELL-MEDIATED, Method: PREINCUBATION) “active; positive”; (Test System: AMES SALMONELLA TYPHIMURIUM, Strain/Indicator: TA100, Metabolic Activation: NONE, Method: HOST-MEDIATED) “active; positive”. The mutagenic call (Test System: AMES SALMONELLA TYPHIMURIUM, Strain/Indicator: TA100, Metabolic Activation: PARENCHYMAL CELL-MEDIATED, AROCLOR 1254, Method: PREINCUBATION) is “active; positive”; the mutagenic call (Test System: AMES SALMONELLA TYPHIMURIUM, Strain/Indicator: TA100, Metabolic Activation: PARENCHYMAL CELL-MEDIATED, NADPH, Method: PREINCUBATION) is “active; positive”; the mutagenic call (Test System: AMES SALMONELLA TYPHIMURIUM, Strain/Indicator: TA100, Metabolic Activation: PARENCHYMAL CELL-MEDIATED, Method: PREINCUBATION) was “active; positive”; the mutagenic call (Test System: AMES SALMONELLA TYPHIMURIUM, Strain/Indicator: TA100, Metabolic Activation: RAT, LIVER, S-9, AROCLOR 1254, Method: STANDARD PLATE) was “active; positive”; the mutagenic call (Test System: AMES SALMONELLA TYPHIMURIUM, Strain/Indicator: TA100, Metabolic Activation: RAT, LIVER, S-9, Method: STANDARD PLATE) was “active; positive”; the mutagenic call (Test System: AMES SALMONELLA TYPHIMURIUM, Strain/Indicator: TA1537, Metabolic Activation: RAT, LIVER, S-9 AROCLOR 1254, Method: STANDARD PLATE) is “inactive; negative”. Also, the mutagenic call (Test System: AMES SALMONELLA TYPHIMURIUM, Strain/Indicator: TA1538, Metabolic Activation: NONE, Method: HOST-MEDIATED) is “inactive; negative”; the mutagenic call (Test System: AMES SALMONELLA TYPHIMURIUM, Strain/Indicator: TA1538, Metabolic Activation: RAT, LIVER, S-9, Method: STANDARD PLATE) was “active; positive”; the mutagenic call (Test System: CHINESE HAMSTER V-79, Strain/Indicator: V-79/6-THIOGUANINE, Metabolic Activation: RAT, LIVER, S-9, AROCLOR 1254) was “active; positive”; the mutagenic call (Test System: CHINESE HAMSTER V-79, Strain/Indicator: V-79/8-AZAGUANINE, Metabolic Activation: CELL-MEDIATED, Method: STANDARD PLATE) was “active; positive”; the mutagenic call (Test System: CHINESE HAMSTER V-79, Strain/Indicator: V-79/8-AZAGUANINE, Metabolic Activation: NONE, Method: STANDARD PLATE) was “active; positive”; the mutagenic call (Test System: CHINESE HAMSTER V-79, Strain/Indicator: V-79/OUABAIN, Metabolic Activation: CELL-MEDIATED, Method: STANDARD PLATE) is “active; positive”. For the same compound, the mutagenic call (Test System: CHINESE HAMSTER V-79, Strain/Indicator: V-79/OUABAIN, Metabolic Activation: HAMSTER, EMBRYO, CELL-MEDIATED, Method: STANDARD PLATE) is “active; positive”.

For the compound `COc1cc(O)ccc1Nc1c2ccccc2nc2ccccc12`, for the setting “Test System: AMES SALMONELLA TYPHIMURIUM, Strain/Indicator: TA1537, Metabolic Activation: NONE, Method: STANDARD PLATE”, the mutagenic call was “active; positive”.

As for `Nc1ccc(-c2ccc(N)cc2Cl)c(Cl)c1`, the mutagenic call was “active; positive” (Test System: AMES SALMONELLA TYPHIMURIUM, Strain/Indicator: TA98, Metabolic Activation: HAMSTER, LIVER, S-9, Method: PREINCUBATION (PRIVAL METHOD)); “active; positive” (Test System: AMES SALMONELLA TYPHIMURIUM, Strain/Indicator: TA98, Metabolic Activation: NONE, Method: PREINCUBATION (PRIVAL METHOD)); “active; positive” (Test System: UDS HUMAN CELLS, Strain/Indicator: THY INCORP (NON-S-PHASE), Metabolic Activation: RAT, LIVER, S-9, PHENOBARBITAL, Method: LIQUID SCINTILLATION COUNTING).

For the compound `CC(C)c1cc(-c2ccccc2)cc(C(C)C)c1N`, the mutagenic call runs as follows: under setting [1], “inactive; negative”; (Test System: AMES SALMONELLA TYPHIMURIUM, Strain/Indicator: TA98, Metabolic Activation: RAT LIVER S-9, AROCLOR, Method: STANDARD PLATE) “inactive; negative”; (Test System: AMES SALMONELLA TYPHIMURIUM, Strain/Indicator: TA100, Metabolic Activation: NONE, Method: STANDARD PLATE) “inactive; negative”; (Test System: AMES SALMONELLA TYPHIMURIUM, Strain/Indicator: TA100, Metabolic Activation: RAT LIVER S-9, AROCLOR, Method: STANDARD PLATE) “inactive; negative”.

In the case of `O=Nc1ccc2ccc3c4ccccc4cc4ccc1c2c43`, the mutagenic call by setting is: (Test System: AMES SALMONELLA TYPHIMURIUM, Strain/Indicator: TA98 (1,8-DNP6), Metabolic Activation: NONE, Method: STANDARD PLATE) “active; positive”; (Test System: AMES SALMONELLA TYPHIMURIUM, Strain/Indicator: TA98 (NR), Metabolic Activation: NONE, Method: STANDARD PLATE) “active; positive”; under setting [1], “active; positive”; (Test System: CHINESE HAMSTER OVARY, Strain/Indicator: CHO-K1-BH4 (HGPRT), Metabolic Activation: NONE) “active; positive”.
